Experimental findings from US12668594B2, “TYK2 inhibitors and uses thereof” (Sudo Biosciences Limited, priority 2020, dated 2026) are described below.

For test [1], the target named is T1, TYK2 (Homo sapiens, UniProt P29597). The test can be described thus: HEK-Blue IFNα/β reporter assay (SEAP) for TYK2 pseudokinase inhibition. The class given is cell-based. The note with it: HEK-Blue IFNα/β cells, 1 ng/mL human recombinant IFNα. The protocol:
(§1) HEK-Blue™ IL-23 and IFNα/β cells with a stably-integrated cytokine receptor and STAT3 or STAT1 express STAT-inducible secreted embryonic alkaline phosphatase (SEAP) reporter gene upon cytokine stimulation. These cells are plated in DMVEM (Gibco) containing 10% heat-inactivated FBS (Gibco) and 100 U/mL PenStrep (Gibco) at 37° C. under […] conditions for 20-22 hours. The cells are then pretreated with serially diluted test compounds for 60 min prior to stimulation with either 10 ng/mL human recombinant IL-23 (Miltenyl Biotech) or 1 ng/mL human recombinant IFNα (InvivoGen) for 22-24 hours for IL-23 or 16-18 h for IFNα. SEAP induction is measured using the QUANTI Blue™ Solution (InvivoGen) according to the manufacturer's instructions. Inhibition data are calculated by comparison to no inhibitor control wells for 000 inhibition and non-stimulated control wells for 10000 inhibition. Dose response curves are generated to determine the concentration required to inhibit 5000 of cellular response (IC50) as derived by non-linear regression analysis.
In general terms: Reporter assays use an easily measured gene product as a stand-in for the process of interest.

The target of test [2] is T1, TYK2. Nature of the test: HEK-Blue IL-23 reporter assay (SEAP) for TYK2 pseudokinase inhibition. The class given is cell-based. Set-up: HEK-Blue™ IL-23 and IFNα/β cells with a stably-integrated cytokine receptor and STAT3 or STAT1; host or cells: HEK-Blue IL-23 / HEK-Blue IFNα/β cells (HEK293 background). As to conditions: HEK-Blue IL-23 cells, 10 ng/mL human recombinant IL-23, SEAP reporter; read-out: IL23 IC50. The protocol: as §1

Bounds are passed on as bounds.

T1 sequence (P29597 whole entry): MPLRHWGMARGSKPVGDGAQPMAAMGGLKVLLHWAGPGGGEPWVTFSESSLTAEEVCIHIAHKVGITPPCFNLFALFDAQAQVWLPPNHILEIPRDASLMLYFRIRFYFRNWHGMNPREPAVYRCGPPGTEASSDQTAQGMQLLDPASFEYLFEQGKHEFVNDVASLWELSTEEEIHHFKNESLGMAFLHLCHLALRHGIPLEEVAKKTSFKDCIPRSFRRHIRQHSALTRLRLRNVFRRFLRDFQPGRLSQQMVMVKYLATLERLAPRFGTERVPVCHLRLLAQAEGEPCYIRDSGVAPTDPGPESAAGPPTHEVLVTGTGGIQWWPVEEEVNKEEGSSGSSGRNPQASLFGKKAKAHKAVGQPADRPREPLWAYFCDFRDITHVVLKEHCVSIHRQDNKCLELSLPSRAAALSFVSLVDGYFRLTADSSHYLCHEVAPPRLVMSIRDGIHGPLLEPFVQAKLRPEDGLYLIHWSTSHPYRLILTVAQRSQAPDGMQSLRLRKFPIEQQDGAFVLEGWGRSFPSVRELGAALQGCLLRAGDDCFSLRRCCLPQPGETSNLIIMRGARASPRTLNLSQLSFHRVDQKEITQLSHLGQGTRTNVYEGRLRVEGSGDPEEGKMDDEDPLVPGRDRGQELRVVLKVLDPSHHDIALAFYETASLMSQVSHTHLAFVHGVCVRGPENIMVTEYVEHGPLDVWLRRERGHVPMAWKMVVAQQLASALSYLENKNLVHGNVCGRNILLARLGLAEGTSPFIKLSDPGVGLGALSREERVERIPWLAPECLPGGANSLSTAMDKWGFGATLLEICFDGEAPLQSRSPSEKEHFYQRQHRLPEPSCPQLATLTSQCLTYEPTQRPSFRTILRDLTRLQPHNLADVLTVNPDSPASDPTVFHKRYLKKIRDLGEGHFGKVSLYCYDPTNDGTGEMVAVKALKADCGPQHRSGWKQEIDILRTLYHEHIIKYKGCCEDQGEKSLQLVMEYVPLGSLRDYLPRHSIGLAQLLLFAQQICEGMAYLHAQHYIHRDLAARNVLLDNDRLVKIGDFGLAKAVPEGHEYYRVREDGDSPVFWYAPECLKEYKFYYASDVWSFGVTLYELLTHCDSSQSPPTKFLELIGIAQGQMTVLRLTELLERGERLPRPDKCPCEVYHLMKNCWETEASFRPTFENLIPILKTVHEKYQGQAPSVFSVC

As a reminder, the IC50 is the concentration at which inhibition is half-maximal. On to `Cn1ccc(Nc2cc3c(cn2)c(=O)[nH]n3-c2ccccc2)n1` [Compound I-4, 6-((1-methyl-1H-pyrazol-3-yl)amino)-1-phenyl-1,2-dihydro-3H-pyrazolo[4,3-c]pyridin-3-one], for which the IC50 in test [1] is 10 to 30 µM; in test [2], less than 10 µM.
Turning to `Cn1cc(Nc2cc3c(cn2)c(=O)[nH]n3-c2ccccc2)cn1` [Compound I-5, 6-((1-methyl-1H-pyrazol-4-yl)amino)-1-phenyl-1,2-dihydro-3H-pyrazolo[4,3-c]pyridin-3-one], the IC50 in test [1] was 30 to 90 µM; in test [2] it was 10 to 30 µM.
Taken in the same sequence, the figures for `Cc1cc(Nc2cc3c(cn2)c(=O)[nH]n3-c2ccccc2)ncc1F` [Compound I-6, 6-((5-fluoro-4-methylpyridin-2-yl)amino)-1-phenyl-1,2-dihydro-3H-pyrazolo[4,3-c]pyridin-3-one] were less than 10 µM and less than 10 µM.
Taken in the same sequence, the figures for `COCCC(=O)Nc1cc2c(cn1)c(=O)[nH]n2-c1ccccc1` [Compound I-7, 3-methoxy-N-(3-oxo-1-phenyl-2,3-dihydro-1H-pyrazolo[4,3-c]pyridin-6-yl)propanamide] were 30 to 90 µM and 10 to 30 µM.
As to `Cc1nc(Nc2cc3c(cn2)c(=O)[nH]n3-c2ccccc2)cc(OC(C)C)n1` [Compound I-8, 6-((6-isopropoxy-2-methylpyrimidin-4-yl)amino)-1-phenyl-1,2-dihydro-3H-pyrazolo[4,3-c]pyridin-3-one], the half-inhibitory concentration (IC50) in test [1] is 10 to 30 µM; in test [2] it was less than 10 µM.
For `O=C(Nc1cc2c(cn1)c(=O)[nH]n2-c1ccccc1)c1ccccn1` [Compound I-9, N-(3-oxo-1-phenyl-2,3-dihydro-1H-pyrazolo[4,3-c]pyridin-6-yl)picolinamide], in that order: more than 90 µM and more than 90 µM.
Turning to `O=C(Nc1cc2c(cn1)c(=O)[nH]n2-c1ccccc1)c1cccnc1` [Compound I-10, N-(3-oxo-1-phenyl-2,3-dihydro-1H-pyrazolo[4,3-c]pyridin-6-yl)nicotinamide], the half-inhibitory concentration (IC50) in test [2] was more than 90 µM.
Still for that read-out and setting: to `CC(C)N1CCN(c2cc3c(cn2)c(=O)[nH]n3-c2ccccc2)C1=O` [Compound I-13, 6-(3-isopropyl-2-oxoimidazolidin-1-yl)-1-phenyl-1,2-dihydro-3H-pyrazolo[4,3-c]pyridin-3-one] belongs 30 to 90 µM.
`COc1ccccc1-n1[nH]c(=O)c2cnc(NC(=O)C3CC3)cc21` [Compound I-15, N-(1-(2-methoxyphenyl)-3-oxo-2,3-dihydro-1H-pyrazolo[4,3-c]pyridin-6-yl)cyclopropanecarboxamide]: the half-maximal inhibitory concentration (IC50) in test [1] is 30 to 90 µM; in test [2] it was 10 to 30 µM.
With `COc1ccccc1-n1[nH]c(=O)c2cnc(Nc3ccc(F)cn3)cc21` [Compound I-16, 6-((5-fluoropyridin-2-yl)amino)-1-(2-methoxyphenyl)-1,2-dihydro-3H-pyrazolo[4,3-c]pyridin-3-one], the IC50 in test [1] is more than 90 µM; in test [2] it was 30 to 90 µM.
For `Cc1cc(Nc2cc3c(cn2)c(=O)[nH]n3-c2cccc(C#N)c2)nc(C)n1` [Compound I-18, 3-(6-((2,6-dimethylpyrimidin-4-yl)amino)-3-oxo-2,3-dihydro-1H-pyrazolo[4,3-c]pyridin-1-yl)benzonitrile], in that order: 10 to 30 µM and less than 10 µM.
Taken in the same sequence, the figures for `COc1ccc(-n2[nH]c(=O)c3cnc(NC(=O)C4CC4)cc32)cc1` [Compound I-19, N-(1-(4-methoxyphenyl)-3-oxo-2,3-dihydro-1H-pyrazolo[4,3-c]pyridin-6-yl)cyclopropanecarboxamide] were 10 to 30 µM and less than 10 µM.
Taken in the same sequence, the figures for `Cc1cc(Nc2cc3c(cn2)c(=O)[nH]n3-c2ccccc2S(C)(=O)=O)nc(C)n1` [Compound I-20, 6-((2,6-dimethylpyrimidin-4-yl)amino)-1-(2-(methylsulfonyl)phenyl)-1,2-dihydro-3H-pyrazolo[4,3-c]pyridin-3-one] were 30 to 90 µM and 10 to 30 µM.
On to `Cc1cc(Nc2cc3c(cn2)c(=O)[nH]n3-c2cccc(C(N)=O)c2)nc(C)n1` [Compound I-21, 3-(6-((2,6-dimethylpyrimidin-4-yl)amino)-3-oxo-2,3-dihydro-1H-pyrazolo[4,3-c]pyridin-1-yl)benzamide], for which the half-inhibitory concentration (IC50) in test [2] was more than 90 µM.
For `COc1c(-c2ncn(C)n2)cccc1-n1[nH]c(=O)c2cnc(Nc3cc(C)nc(C)n3)cc21` [Compound I-22, 6-[(2,6-dimethylpyrimidin-4-yl)amino]-1-[2-methoxy-3-(1-methyl-1H-1,2,4-triazol-3-yl)phenyl]-1H,2H,3H-pyrazolo[4,3-c]pyridin-3-one], the IC50 was 10 to 30 µM in test [1] and less than 10 µM in test [2].
Taken in the same sequence, the figures for `Cc1cc(Nc2cc3c(cn2)c(=O)[nH]n3-c2cccc(-c3ncn(C)n3)c2)nc(C)n1` [Compound I-23, 6-((2,6-dimethylpyrimidin-4-yl)amino)-1-(3-(1-methyl-1H-1,2,4-triazol-3-yl)phenyl)-1,2-dihydro-3H-pyrazolo[4,3-c]pyridin-3-one] were 10 to 30 µM and less than 10 µM.
For `COc1cccc(-n2[nH]c(=O)c3cnc(Nc4cc(C)nc(C)n4)c(F)c32)c1` [Compound I-24, 6-((2,6-dimethylpyrimidin-4-yl)amino)-7-fluoro-1-(3-methoxyphenyl)-1,2-dihydro-3H-pyrazolo[4,3-c]pyridin-3-one], in that order: more than 90 µM and 10 to 30 µM.
For `CS(=O)(=O)c1ccccc1-n1[nH]c(=O)c2cnc(Nc3ccc(F)cn3)cc21` [Compound I-26, 6-((5-fluoropyridin-2-yl)amino)-1-(2-(methylsulfonyl)phenyl)-1,2-dihydro-3H-pyrazolo[4,3-c]pyridin-3-one], in that order: less than 10 µM and less than 10 µM.
In the case of `Cc1cc(Nc2cc3c(cn2)c(=O)[nH]n3-c2cccc(S(C)(=O)=O)c2)nc(C)n1` [Compound I-27, 6-((2,6-dimethylpyrimidin-4-yl)amino)-1-(3-(methylsulfonyl)phenyl)-1,2-dihydro-3H-pyrazolo[4,3-c]pyridin-3-one], the IC50 in test [2] is more than 90 µM.
Consider `Cc1cc(Nc2cc3c(cn2)c(=O)[nH]n3-c2cccc(OC(F)(F)F)c2)nc(C)n1` [Compound I-28, 6-((2,6-dimethylpyrimidin-4-yl)amino)-1-(3-(trifluoromethoxy)phenyl)-1,2-dihydro-3H-pyrazolo[4,3-c]pyridin-3-one], for which the IC50 in test [1] and in test [2] was less than 10 µM in each case.
In the case of `Cc1cc(Nc2cc3c(cn2)c(=O)[nH]n3-c2cccc(C(F)(F)F)c2)ncc1F` [Compound I-29, 6-((5-fluoro-4-methylpyridin-2-yl)amino)-1-(3-(trifluoromethyl)phenyl)-1,2-dihydro-3H-pyrazolo[4,3-c]pyridin-3-one], the IC50 in test [1] and in test [2] was less than 10 µM throughout.
On to `Cc1cc(Nc2cc3c(cn2)c(=O)[nH]n3-c2cccnc2)nc(C)n1` [Compound I-30, 6-((2,6-dimethylpyrimidin-4-yl)amino)-1-(pyridin-3-yl)-1,2-dihydro-3H-pyrazolo[4,3-c]pyridin-3-one], for which the concentration for half-maximal inhibition (IC50) in test [1] is 10 to 30 µM; in test [2], less than 10 µM.
Taken in the same sequence, the figures for `Cc1cc(Nc2cc3c(cn2)c(=O)[nH]n3-c2cccc(Cl)c2)nc(C)n1` [Compound I-31, 1-(3-chlorophenyl)-6-((2,6-dimethylpyrimidin-4-yl)amino)-1,2-dihydro-3H-pyrazolo[4,3-c]pyridin-3-one] were less than 10 µM and less than 10 µM.
Taken in the same sequence, the figures for `Cc1cc(Nc2cc3c(cn2)c(=O)[nH]n3-c2ccc(S(C)(=O)=O)cc2)nc(C)n1` [Compound I-32, 6-((2,6-dimethylpyrimidin-4-yl)amino)-1-(4-(methylsulfonyl)phenyl)-1,2-dihydro-3H-pyrazolo[4,3-c]pyridin-3-one] were more than 90 µM and 10 to 30 µM.
In the case of `COc1cccc(-n2[nH]c(=O)c3cnc(Nc4cc(C(F)(F)F)ccn4)cc32)c1` [Compound I-43, 1-(3-methoxyphenyl)-6-((4-(trifluoromethyl)pyridin-2-yl)amino)-1,2-dihydro-3H-pyrazolo[4,3-c]pyridin-3-one], in test [2], the half-inhibitory concentration (IC50) was more than 90 µM.
Regarding `O=c1[nH]n(-c2cc(Cl)cc(Cl)c2)c2cc(Nc3ccc(F)cn3)ncc12` [Compound I-97, 1-(3,5-dichlorophenyl)-6-((5-fluoropyridin-2-yl)amino)-1,2-dihydro-3H-pyrazolo[4,3-c]pyridin-3-one], the half-maximal inhibitory concentration (IC50) in test [2] is more than 90 µM.
On the same count and under the same terms, then `Cc1cc(Nc2cc3c(cn2)c(=O)[nH]n3-c2ccc(C(N)=O)cc2)nc(C)n1` [Compound I-123, 4-(6-((2,6-dimethylpyrimidin-4-yl)amino)-3-oxo-2,3-dihydro-1H-pyrazolo[4,3-c]pyridin-1-yl)benzamide], with more than 90 µM.
Same read-out and setting: then `COc1cccc(-n2[nH]c(=O)c3cnc(NC(=O)C4(O)CC4)cc32)c1` [Compound I-124, 1-hydroxy-N-(1-(3-methoxyphenyl)-3-oxo-2,3-dihydro-1H-pyrazolo[4,3-c]pyridin-6-yl)cyclopropane-1-carboxamide], with less than 10 µM.
